Experimental data as given in patent US7368582B2, “Amidomethyl-substituted 2-(4-sulfonylamino)-3-hydroxy-3,4-dihydro-2H-chromen-6-yl compounds, a process and intermediates for their production, and pharmaceutical compositions containing them” (Solvay Pharmaceuticals GmbH, priority 2003, dated 2008).

Legend:
Kv 1.5-potassium channel = biological target: T1, Kv 1.5-potassium channel (Homo sapiens, UniProt P22460); experiment: In-vitro Kv 1.5-potassium channel-blocking effect (Rb+ outflow from CHO cells, atomic absorption spectroscopy); type: cell-based; details: CHO cells stably expressing Kv 1.5, read-out: IC50 (Kv1.5-potassium channel-blocking effect, concentration of half-maximum inhibition)
T1 construct: expressed in transfected cells
Experimental: 1. In-Vitro Investigation of the Kv 1.5-Potassium Channel-Blocking Effect of the Substances
In this test model, a cell line of egg cells of the Chinese hamster (=“Chinese hamster oocytes”, “CHO”) is used which originates from a single cell and stably expresses the Kv 1.5-channel. By incubation overnight in a nutrient medium containing RbCl or a “loading buffer” (all values in mM: RbCl 5, NaCl 140, CaCl2 2, MgSO4 1, HEPES buffer 10, glucose 5) the aforementioned oocytes are loaded with Rb^+ under the influence of Na^+/K^+-ATPase. Thereafter, a portion of the oocytes is incubated as a reference standard in the absence of an inhibitor, while another portion of the oocytes is incubated in the presence of the respective inhibitory test substance of Formula I. Then the oocytes are depolarized by increasing the extracellular potassium-ion concentration, which causes the Kv 1.5-potassium channels of the oocytes to open. In the absence of an inhibitor, the Rb^+ ions flow through the Kv 1.5-potassium channels into the liquid surrounding them. In the presence of an inhibitory test substance of Formula I, on the other hand, the Rb^+ ions remain locked within the oocytes. The extent of the Kv 1.5-potassium channel-blocking effect of the test substances of Formula I is determined by measuring the Rb^+ ion concentration in the liquid surrounding them by means of atomic absorption spectroscopy against a reference standard.
Chinese hamster oocytes (see above) were cultivated in a known, RbCl-containing nutrient medium for CHO-cells and placed in the sample wells of a 96-sample capacity sample plate (“96 well plate”). The oocytes were allowed to grow overnight in order to obtain monolayers of the oocytes. Then the nutrient medium was pipetted off, and each sample well was washed three times with 100 μl portions of a preincubation buffer of low potassium-ion concentration (all values in mM: KCl 5, NaCl 140, CaCl2 2, MgSO4 1, HEPES buffer 10, glucose 5). Then 50 μl of a solution of the respective test substance (stock solution in DMSO, dilution with preincubation buffer, final concentration in the test batch 10 μM) or of the solvent (as negative controls) was added to each sample well and incubated for 10 min. in each case at room temperature. Then 50 μl of a stimulation buffer with elevated potassium-ion concentration (KCl 145 mM, NaCl 0 mM, otherwise as preincubation buffer) was added to each sample well and the samples were then incubated for a further 10 min. at room temperature. In each case, 80 μl of the liquid surrounding the oocytes from each sample well was then transferred separately to the sample wells of an analysis sample plate, and the Rb^+ ion concentration in the liquids was determined by atomic absorption spectroscopy. The test substances were each double-tested. The signal section which represented the Kv 1.5 component of the Rb^+ outflow was defined by using as positive control the known potassium channel blocker 4-AP in a high concentration (100×IC50 for the Kv 1.5 channel). This made it possible to determine which portion of the Rb^+ outflow was dependent on the influence of the 4-AP and therefore is to be assigned to the Kv 1.5 channel. For the substances which in the concentration of 10 μM used led to a reduction in the Rb^+ outflow of at least 50%, additional tests were performed with lower concentrations of the test substances in order to be able to determine the half-maximum effective concentration. In each case the concentration of half-maximum inhibition of the test substances of Formula I (IC50) was given as characteristic variable.

[1] = test system: left atrium of rats' hearts; experiment: Functional refractory period prolongation on isolated left atria of rats' hearts in vitro; design: species or system rat (Sprague-Dawley); details: 10 μM
Experimental: 3. Investigation of the Functional Effectiveness of the Substances on the Atrium of Rats' Hearts in Vitro
In this test model it is determined to what extent the Kv 1.5-blocking substances of Formula I result in a prolongation of the functional refractory period in the left atrium of rats. The refractory period is the minimum possible elapsed time between the basic stimulus and additional stimulus in which a renewed contraction can be triggered. The extent of the prolongation of the functional refractory period is a measurement of the antiarrhythmic effectiveness of the substances according to the invention. The functional refractory period is determined by testing on the electrically stimulated preparation at what elapsed time from the preceding contraction a renewed contraction can be triggered by additional electrical stimuli.
The hearts were removed from freshly sacrificed rats (Sprague-Dawley, Charles-River, Germany). The left atria were isolated and fastened to force transducers in a temperature-controlled (30° C.), gasified (O2 95%, CO2 5%) organ bath which was filled with modified Tyrode solution (all values in mM: NaCl 137; KCl 2.7; CaCl2 1.8; MgCl2 0.8; NaHCO3 11.9; NaH2PO4 0.6; glucose 5). In order to trigger regular contractions, the preparations were electrically stimulated (rectangular pulses, pulse magnitude 3.5× threshold stimulus, pulse width 1.5 ms, frequency 1 Hz). Initially, the initial value of the functional refractory period was determined by applying extra pulses in addition to the basic stimulus, the elapsed time from the preceding basic stimulus being shortened until no further additional contraction could be triggered. Then the cumulative addition of increasing concentrations (0.1-10 μM) of the substances of Formula I took place at intervals of 20 min. each, the refractory period being determined again in each case 18 min. after the addition had taken place. Before the measurement, stock solutions of the test substances (3.2 and 0.32 mM in 100% DMSO) were prepared. In order to achieve the desired final concentrations of the substances (0.1-10 μM) in the organ bath (volume 100 ml), corresponding volumes of these stock solutions were then poured into the organ bath.
In each case the prolongation of the functional refractory period (FRP) in the left atrium of the rats' hearts in milliseconds observed after the addition of 10 μM of the respective substance of Formula I to the atrial preparations was given as characteristic variable.

Kv 1.3-potassium channel = biological target: T2, Kv 1.3-potassium channel (Homo sapiens, UniProt P22001); experiment: In-vitro Kv 1.3-potassium channel-blocking effect (membrane potential-sensitive fluorescent dye in transfected CHO cells); type: cell-based; details: 10 μM test substance; CHO cells transfected with Kv 1.3; relative to reference margatoxin
T2 construct: expressed in transfected cells; host or cells: CHO cells, stably transfected with the Kv 1.3 plasmid using DMRIE-C
From the text: 2. In-Vitro Investigation of the Kv 1.3-Potassium Channel-Blocking Effect of the Substances
In this test model, known oocytes of the Chinese hamster (═CHO) are used which are stably transfected with the Kv 1.3-potassium channel. The blockade of the cell-inherent Kv 1.3-potassium channel activity in the transfected cells is accompanied by a positive shift in the membrane potential from approx. −40 mV to −30 mV, whereas in the wild-type CHO cells investigated in parallel no significant shift in the membrane potential is triggered. A change in the membrane potential is thus connected to the reduction in the Kv 1.3-potassium channel activity. By blocking the Kv 1.3-potassium channels e.g. with substances of Formula I and the resulting change in the membrane potential, an accumulation of a membrane potential-sensitive fluorescent dye in intracellular compartments of the oocytes and ultimately increasing fluorescence occurs. The change in the membrane potential of the oocytes is therefore measured indirectly via the increase in fluorescence of the membrane potential-senstive dyes.
The cells were transfected with the Kv 1.3 plasmid in known manner with a commercially obtainable transfection reagent (DMRIE-C from Gibco BRL, Germany). The successful transfection was verified by immunofluorescence and by “patch-clamp” investigations of the potassium ion current. The fluorescence measurements were performed on a Tecan Safire fluorescence reader from Tecan, Germany. In each case, the increase in the fluorescent intensity caused by the blockade of the Kv 1.3-potassium channels in the oocytes with substances of Formula I in a concentration of 10 μM was determined as characteristic variable. The increase in the fluorescent intensity was given in each case in percent (%) compared with an increase in the fluorescent intensity caused by the reference substance margatoxin. Margatoxin is known as a selective Kv 1.3-potassium channel blocker (see e.g. M. Garcia-Calvo et al., J. Biol. Chem. 268 (1993) 18866-18874).

T2 sequence (P22001 whole entry): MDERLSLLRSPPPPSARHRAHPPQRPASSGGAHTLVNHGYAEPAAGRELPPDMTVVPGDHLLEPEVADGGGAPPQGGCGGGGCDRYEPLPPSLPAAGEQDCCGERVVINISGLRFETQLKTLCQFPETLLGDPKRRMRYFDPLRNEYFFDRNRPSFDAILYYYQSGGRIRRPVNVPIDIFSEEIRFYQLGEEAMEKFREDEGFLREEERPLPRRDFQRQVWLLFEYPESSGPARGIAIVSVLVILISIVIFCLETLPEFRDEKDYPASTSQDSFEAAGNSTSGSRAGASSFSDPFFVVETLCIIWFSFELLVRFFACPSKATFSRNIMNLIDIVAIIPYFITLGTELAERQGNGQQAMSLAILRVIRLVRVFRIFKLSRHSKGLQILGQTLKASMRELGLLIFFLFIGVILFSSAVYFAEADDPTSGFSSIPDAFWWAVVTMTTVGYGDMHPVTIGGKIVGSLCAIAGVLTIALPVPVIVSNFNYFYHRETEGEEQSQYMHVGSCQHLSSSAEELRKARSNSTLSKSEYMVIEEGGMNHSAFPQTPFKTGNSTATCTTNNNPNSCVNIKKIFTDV
T1 sequence (P22460 whole entry): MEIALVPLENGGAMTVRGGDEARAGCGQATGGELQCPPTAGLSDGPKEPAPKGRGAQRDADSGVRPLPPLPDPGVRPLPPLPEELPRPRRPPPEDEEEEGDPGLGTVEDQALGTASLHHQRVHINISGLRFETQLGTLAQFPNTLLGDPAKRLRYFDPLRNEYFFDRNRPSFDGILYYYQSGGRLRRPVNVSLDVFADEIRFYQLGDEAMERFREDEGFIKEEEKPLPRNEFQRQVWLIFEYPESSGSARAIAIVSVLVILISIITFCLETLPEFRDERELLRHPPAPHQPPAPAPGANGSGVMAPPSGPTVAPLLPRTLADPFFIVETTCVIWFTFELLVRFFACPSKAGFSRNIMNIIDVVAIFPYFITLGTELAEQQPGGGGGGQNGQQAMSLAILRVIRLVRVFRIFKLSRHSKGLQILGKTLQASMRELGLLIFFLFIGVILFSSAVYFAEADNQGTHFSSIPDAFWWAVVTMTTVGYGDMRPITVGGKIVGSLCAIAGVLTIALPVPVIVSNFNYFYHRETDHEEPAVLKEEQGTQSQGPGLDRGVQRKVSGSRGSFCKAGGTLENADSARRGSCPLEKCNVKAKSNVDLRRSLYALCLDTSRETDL

With `Cc1ccc(S(=O)(=O)NC2c3cc(CC(=O)NC4CCCc5ccccc54)ccc3OC(C)(C)C2O)cc1` (mixture of isomers) [Example 15] the IC50 (Kv 1.5-potassium channel) was 4 µM and the FRP prolongation [1] was 30 ms.
`Cc1cccc(S(=O)(=O)NC2c3cc(CC(=O)NCc4ccc(Cl)cc4)ccc3OC(C)(C)C2O)c1` (stereo not shown) [Example 5, N-(4-chlorobenzyl)-2-(3-hydroxy-2,2-dimethyl-4-{[(3-methylphenyl)sulfonyl]amino}-3,4-dihydro-2H-chromen-6-yl)acetamide] was tested, and the IC50 (Kv 1.5-potassium channel) was 5 µM and the “Increase in the fluorescent intensity (% margatoxin)” value (shortened to “Increase … (% margatoxin)”) (Kv 1.3-potassium channel) was 82 % margatoxin.
`CCCCNC(=O)Cc1ccc2c(c1)C(N(CC(CC)CC)S(=O)(=O)c1cc(OC)ccc1OC)C(O)C(C)(C)O2` (stereo not shown) [Example 6] was tested, and the IC50 (Kv 1.5-potassium channel) was 2.9 µM and the “Increase … (% margatoxin)” value (Kv 1.3-potassium channel) was 97 % margatoxin.
For `CCCCNC(=O)Cc1ccc2c(c1)C(NS(=O)(=O)c1ccc(I)cc1)C(O)C(C)(C)O2` (stereo not shown) [Example 17], the IC50 (Kv 1.5-potassium channel) was 2.65 µM and the “Increase … (% margatoxin)” value (Kv 1.3-potassium channel) was 72 % margatoxin.
For `Cc1ccc(S(=O)(=O)N(CC2CC2)C2c3cc(CC(=O)NCc4ccccc4)ccc3OC(C)(C)C2O)cc1` (stereo not shown) [Example 18], the IC50 (Kv 1.5-potassium channel) was 2.7 µM and the “Increase … (% margatoxin)” value (Kv 1.3-potassium channel) was 141 % margatoxin.
For `Cc1ccc(S(=O)(=O)N(CCC(C)C)C2c3cc(CC(=O)NCc4ccccc4)ccc3OC(C)(C)C2O)cc1` (stereo not shown) [Example 19], the IC50 (Kv 1.5-potassium channel) was 2.5 µM and the “Increase … (% margatoxin)” value (Kv 1.3-potassium channel) was 171 % margatoxin.
In the case of `CCC(CC)CN(C1c2cc(CC(=O)NCc3ccco3)ccc2OC(C)(C)C1O)S(=O)(=O)c1cc(OC)ccc1OC` (stereo not shown) [Example 21], the IC50 (Kv 1.5-potassium channel) is reported as 3.3 µM and the “Increase … (% margatoxin)” value (Kv 1.3-potassium channel) is reported as 86 % margatoxin.
In the case of `CCCCCN(C1c2cc(CC(=O)NC(C)C(C)C)ccc2OC(C)(C)C1O)S(=O)(=O)c1cccc(OC)c1` (stereo not shown) [Example 22], the IC50 (Kv 1.5-potassium channel) is reported as 3.4 µM and the “Increase … (% margatoxin)” value (Kv 1.3-potassium channel) is reported as 71 % margatoxin.
With `CC(C)CCN(C1c2cc(CC(=O)NCc3ccccc3)ccc2OC(C)(C)C1O)S(=O)(=O)c1ccc(C(F)(F)F)cc1` (stereo not shown) [Example 23] the IC50 (Kv 1.5-potassium channel) was 4.3 µM and the “Increase … (% margatoxin)” value (Kv 1.3-potassium channel) was 41 % margatoxin.
Compound `CCCNC(=O)Cc1ccc2c(c1)C(N(CC(C)C)S(=O)(=O)c1ccc(F)c(Cl)c1)C(O)C(C)(C)O2` (stereo not shown) [Example 24] has an IC50 (Kv 1.5-potassium channel) of 5 µM.
`CC(C)CCN(C1c2cc(CC(=O)NCc3ccccc3)ccc2OC(C)(C)C1O)S(=O)(=O)c1ccc2ccccc2c1` (stereo not shown) [Example 25] showed an IC50 (Kv 1.5-potassium channel) of 5.2 µM.
With `CCCNC(=O)Cc1ccc2c(c1)C(N(CCC(C)C)S(=O)(=O)c1ccc(-c3ccccc3)cc1)C(O)C(C)(C)O2` (stereo not shown) [Example 26] the IC50 (Kv 1.5-potassium channel) was 5.2 µM.
`COc1cccc(S(=O)(=O)N(CCC(C)C)C2c3cc(CC(=O)NCc4ccc(Cl)cc4)ccc3OC(C)(C)C2O)c1` (stereo not shown) [Example 27] was tested, and the IC50 (Kv 1.5-potassium channel) was 5.6 µM.
